{"source": "patent US20150209315A1", "about": "(Cumberland Pharmaceuticals, priority 2009, published 2015)", "tested_on": "post-operative adult patients", "assay": "Example 1: patient self-assessment of pain, VAS with movement", "assay_type": "in vivo, human", "set-up": "key to VAS Score measured with Movement (median): VAS 0-10: 0 = no pain, 10 = intense pain", "method": "Pain was measured by the patient's self-assessment using a Visual Analog Scale (VAS) from 0-10 with 0 being no pain and 10 being intense pain. This was measured both at rest and with movement. […] […] To account for the missing pain assessments, two missing value approaches as described in the statistical analysis plan were used to impute values. To determine the difference in overall pain at differing time-points, the area under the VAS pain curve during the first 24 hours, between 6 and 24 hours and between 12 and 24 hours were analyzed."}
{"smiles": "CC(C)Cc1ccc(C(C)C(=O)O)cc1", "note": "(stereo not shown) [Ibuprofen, 2-(4-isobutylphenyl) propionic acid]", "values": [{"measurement": "VAS Score measured with Movement (median)", "setting": "400 mg, ITT, 42-Hour", "result": 3.3}, {"measurement": "VAS Score measured with Movement, % Reduction vs Placebo", "setting": "400 mg, ITT, 42-Hour", "result": 2.9, "unit": "%"}, {"measurement": "VAS Score measured with Movement (median)", "setting": "400 mg, ITT, 45-Hour", "result": 3.3}, {"measurement": "VAS Score measured with Movement, % Reduction vs Placebo", "setting": "400 mg, ITT, 45-Hour", "result": "−6.5", "unit": "%"}, {"measurement": "VAS Score measured with Movement (median)", "setting": "400 mg, ITT, 48-Hour", "result": 3.2}, {"measurement": "VAS Score measured with Movement, % Reduction vs Placebo", "setting": "400 mg, ITT, 48-Hour", "result": "−39.1", "unit": "%"}, {"measurement": "VAS Score measured with Movement (median)", "setting": "800 mg, EEP, 1-Hour", "result": 7.8}, {"measurement": "VAS Score measured with Movement, % Reduction vs Placebo", "setting": "800 mg, EEP, 1-Hour", "result": 2.5, "unit": "%"}, {"measurement": "VAS Score measured with Movement (median)", "setting": "800 mg, EEP, 2-Hour", "result": 7.0}, {"measurement": "VAS Score measured with Movement, % Reduction vs Placebo", "setting": "800 mg, EEP, 2-Hour", "result": 1.4, "unit": "%"}, {"measurement": "VAS Score measured with Movement (median)", "setting": "800 mg, EEP, 3-Hour", "result": 6.1}, {"measurement": "VAS Score measured with Movement, % Reduction vs Placebo", "setting": "800 mg, EEP, 3-Hour", "result": "−1.7", "unit": "%"}, {"measurement": "VAS Score measured with Movement (median)", "setting": "800 mg, EEP, 6-Hour", "result": 5.6}, {"measurement": "VAS Score measured with Movement, % Reduction vs Placebo", "setting": "800 mg, EEP, 6-Hour", "result": "−12.0", "unit": "%"}, {"measurement": "VAS Score measured with Movement (median)", "setting": "800 mg, EEP, 9-Hour", "result": 4.8}, {"measurement": "VAS Score measured with Movement, % Reduction vs Placebo", "setting": "800 mg, EEP, 9-Hour", "result": 4.0, "unit": "%"}, {"measurement": "VAS Score measured with Movement (median)", "setting": "800 mg, EEP, 12-Hour", "result": 4.4}, {"measurement": "VAS Score measured with Movement (median)", "setting": "800 mg, EEP, 15-Hour", "result": 4.2}, {"measurement": "VAS Score measured with Movement, % Reduction vs Placebo", "setting": "800 mg, EEP, 15-Hour", "result": 16.0, "unit": "%"}, {"measurement": "VAS Score measured with Movement (median)", "setting": "800 mg, EEP, 18-Hour", "result": 4.0}, {"measurement": "VAS Score measured with Movement, % Reduction vs Placebo", "setting": "800 mg, EEP, 18-Hour", "result": 20.0, "unit": "%"}, {"measurement": "VAS Score measured with Movement (median)", "setting": "800 mg, EEP, 21-Hour", "result": 3.7}, {"measurement": "VAS Score measured with Movement, % Reduction vs Placebo", "setting": "800 mg, EEP, 21-Hour", "result": 26.0, "unit": "%"}, {"measurement": "VAS Score measured with Movement (median)", "setting": "800 mg, EEP, 24-Hour", "result": 3.6}, {"measurement": "VAS Score measured with Movement, % Reduction vs Placebo", "setting": "800 mg, EEP, 24-Hour", "result": 18.2, "unit": "%"}, {"measurement": "VAS Score measured with Movement (median)", "setting": "800 mg, EEP, 27-Hour", "result": 3.7}, {"measurement": "VAS Score measured with Movement, % Reduction vs Placebo", "setting": "800 mg, EEP, 27-Hour", "result": 17.8, "unit": "%"}, {"measurement": "VAS Score measured with Movement (median)", "setting": "800 mg, EEP, 30-Hour", "result": 3.6}, {"measurement": "VAS Score measured with Movement (median)", "setting": "800 mg, EEP, 33-Hour", "result": 3.6}, {"measurement": "VAS Score measured with Movement, % Reduction vs Placebo", "setting": "800 mg, EEP, 33-Hour", "result": 5.3, "unit": "%"}, {"measurement": "VAS Score measured with Movement (median)", "setting": "800 mg, EEP, 36-Hour", "result": 3.4}, {"measurement": "VAS Score measured with Movement (median)", "setting": "800 mg, EEP, 39-Hour", "result": 3.8}, {"measurement": "VAS Score measured with Movement, % Reduction vs Placebo", "setting": "800 mg, EEP, 39-Hour", "result": "−11.8", "unit": "%"}, {"measurement": "VAS Score measured with Movement (median)", "setting": "800 mg, EEP, 42-Hour", "result": 3.2}, {"measurement": "VAS Score measured with Movement, % Reduction vs Placebo", "setting": "800 mg, EEP, 42-Hour", "result": 8.6, "unit": "%"}, {"measurement": "VAS Score measured with Movement (median)", "setting": "800 mg, EEP, 45 Hour", "result": 2.8}, {"measurement": "VAS Score measured with Movement, % Reduction vs Placebo", "setting": "800 mg, EEP, 45 Hour", "result": 9.7, "unit": "%"}, {"measurement": "VAS Score measured with Movement (median)", "setting": "800 mg, EEP, 48-Hour", "result": 2.1}, {"measurement": "VAS Score measured with Movement (median)", "setting": "800 mg, ITT, 1-Hour", "result": 7.3}, {"measurement": "VAS Score measured with Movement, % Reduction vs Placebo", "setting": "800 mg, ITT, 1-Hour", "result": 8.8, "unit": "%"}, {"measurement": "VAS Score measured with Movement (median)", "setting": "800 mg, ITT, 2-Hour", "result": 6.8}, {"measurement": "VAS Score measured with Movement, % Reduction vs Placebo", "setting": "800 mg, ITT, 2-Hour", "result": 6.8, "unit": "%"}, {"measurement": "VAS Score measured with Movement (median)", "setting": "800 mg, ITT, 3-Hour", "result": 6.0}, {"measurement": "VAS Score measured with Movement, % Reduction vs Placebo", "setting": "800 mg, ITT, 3-Hour", "result": 4.8, "unit": "%"}, {"measurement": "VAS Score measured with Movement (median)", "setting": "800 mg, ITT, 6-Hour", "result": 5.3}, {"measurement": "VAS Score measured with Movement, % Reduction vs Placebo", "setting": "800 mg, ITT, 6-Hour", "result": 7.0, "unit": "%"}, {"measurement": "VAS Score measured with Movement (median)", "setting": "800 mg, ITT, 9-Hour", "result": 4.6}, {"measurement": "VAS Score measured with Movement (median)", "setting": "800 mg, ITT, 12-Hour", "result": 4.3}, {"measurement": "VAS Score measured with Movement, % Reduction vs Placebo", "setting": "800 mg, ITT, 12-Hour", "result": 14.0, "unit": "%"}, {"measurement": "VAS Score measured with Movement (median)", "setting": "800 mg, ITT, 15-Hour", "result": 4.2}, {"measurement": "VAS Score measured with Movement, % Reduction vs Placebo", "setting": "800 mg, ITT, 15-Hour", "result": 16.0, "unit": "%"}, {"measurement": "VAS Score measured with Movement (median)", "setting": "800 mg, ITT, 18-Hour", "result": 4.0}, {"measurement": "VAS Score measured with Movement, % Reduction vs Placebo", "setting": "800 mg, ITT, 18-Hour", "result": 20.0, "unit": "%"}, {"measurement": "VAS Score measured with Movement (median)", "setting": "800 mg, ITT, 21-Hour", "result": 3.8}, {"measurement": "VAS Score measured with Movement, % Reduction vs Placebo", "setting": "800 mg, ITT, 21-Hour", "result": 22.4, "unit": "%"}, {"measurement": "VAS Score measured with Movement (median)", "setting": "800 mg, ITT, 24-Hour", "result": 3.7}, {"measurement": "VAS Score measured with Movement, % Reduction vs Placebo", "setting": "800 mg, ITT, 24-Hour", "result": 17.8, "unit": "%"}, {"measurement": "VAS Score measured with Movement (median)", "setting": "800 mg, ITT, 27 Hour", "result": 3.6}, {"measurement": "VAS Score measured with Movement, % Reduction vs Placebo", "setting": "800 mg, ITT, 27 Hour", "result": 18.2, "unit": "%"}, {"measurement": "VAS Score measured with Movement (median)", "setting": "800 mg, ITT, 30-Hour", "result": 3.5}, {"measurement": "VAS Score measured with Movement (median)", "setting": "800 mg, ITT, 33-Hour", "result": 3.5}, {"measurement": "VAS Score measured with Movement, % Reduction vs Placebo", "setting": "800 mg, ITT, 33-Hour", "result": 7.9, "unit": "%"}, {"measurement": "VAS Score measured with Movement (median)", "setting": "800 mg, ITT, 36-Hour", "result": 3.5}, {"measurement": "VAS Score measured with Movement (median)", "setting": "800 mg, ITT, 39-Hour", "result": 3.7}, {"measurement": "VAS Score measured with Movement, % Reduction vs Placebo", "setting": "800 mg, ITT, 39-Hour", "result": -5.7, "unit": "%"}, {"measurement": "VAS Score measured with Movement (median)", "setting": "800 mg, ITT, 42-Hour", "result": 3.3}, {"measurement": "VAS Score measured with Movement, % Reduction vs Placebo", "setting": "800 mg, ITT, 42-Hour", "result": 2.9, "unit": "%"}, {"measurement": "VAS Score measured with Movement (median)", "setting": "800 mg, ITT, 45-Hour", "result": 2.7}, {"measurement": "VAS Score measured with Movement (median)", "setting": "800 mg, ITT, 48-Hour", "result": 2.1}, {"measurement": "VAS Score measured with Movement, % Reduction vs Placebo", "setting": "800 mg, ITT, 48-Hour", "result": 8.7, "unit": "%"}]}
